Test results published in patent publication US20070060636A1, “High enantiomeric purity dexanabinol for pharmaceutical compositions” (priority 2002, published 2007).

Assays:
[1] = plasma and brain concentrations after bolus i.v. 4 mg/kg; format: in vivo, Sprague Dawley rats
Procedure: The pharmacokinetics of dexanabinol of high enantiomeric purity formulated in CREMOPHOR EL®:ethanol as described in Example 4 were investigated in rats, rabbits, and monkeys following intravenous administration of single doses, and 14 and 28 days of repeated dosing. Human pharmacokinetics was studied during Phase I and Phase II clinical studies. Dexanabinol used in the pharmacokinetic studies was formulated as drug concentrates of 50 and 100 mg/ml and diluted with sterile 0.9% NaCl solution prior to intravenous (i.v.) administration to the desired final doses. Determination of dexanabinol concentrations in plasma and brain extracts was carried out using a validated Gas Chromatography-Mass Spectra (GC-MS) assay following solid phase extraction of the drug and derivatization. The limit of quantitation of the assay is 0.1 ng/ml.
Brain pharmacokinetic parameters in animal studies were estimated by non-compartmental methods similar to those used for plasma data with the addition of an estimate of the time of maximum concentration (Tmax) which was assumed to be zero for the plasma data. Cmax is the concentration corresponding to Tmax. AUCz and AUC∞ were calculated as described above. Kp, brain-to-plasma partition coefficient, was determined by means of the area method and using the equation: Kp=AUC∞ brain/AUC∞ plasma […]

[2] = oral bioavailability, hard gelatin capsules, minipig model; format: in vivo; details: plasma, 40 mg/kg
Procedure: The percentage of oral bioavailability was calculated using the following equation: % F=[AUCoral/Doseoral]/[AUCIV/DoseIV] Non-human Pharmacokinetic Studies.
Dexanabinol of high enantiomeric purity (lot # AC9001HU) filled in hard gelatin capsules have shown good oral bioavailability. A pharmacokinetic study for oral bioavailability of dexanabinol in large animals using the minipig model (the best animal model for oral absorption of drugs) was carried out. The animals (n=3) after 8 hours of food deprivation were administered orally with hard gelatin capsules containing dexanabinol of high enantiomeric purity at a dose of 40 mg/kg. Dexanabinol plasma levels were determined using a validated GC-MS assay up to 48 hours following administration. […] Pharmacokinetic analysis was done using the non-compartmental model analysis (WinNonlin software). Linear trapezoidal rule was used to compute AUC and AUMC.

[3] = CREMOPHOR EL:ethanol formulations, dissolution and stability after dilution in saline; format: physicochemical; details: for Stability following dilution in saline, Dilution 1/5 / Stability following dilution in saline, Dilution 1/10 / Stability following dilution in saline, Dilution 1/20: monitored 24 hours
Procedure: Once it was established that a cosolvent formulation made of CREMOPHOR EL® (polyoxyl 35 castor oil) and ethanol is appropriate to dissolve the drug, a matrix of such formulations was prepared at various concentrations (from 30 to 70% w/w of each ingredient) and with increasing amounts of dexanabinol of high enantiomeric purity (20, 50 and 100 mg/ml). The exact composition of these formulations is described in the left hand side of Table 5. The drug cosolvent concentrates were diluted at various ratios in saline and the stability of the drug in the resulting solutions was monitored for 24 hours.

[4] = 20 mg/ml in 30% CREMOPHOR EL/70% ethanol
[5] = 20 mg/ml in 50% CREMOPHOR EL/50% ethanol
[6] = 20 mg/ml in 70% CREMOPHOR EL/30% ethanol
[7] = 50 mg/ml in 30% CREMOPHOR EL/70% ethanol
[8] = 50 mg/ml in 50% CREMOPHOR EL/50% ethanol
[9] = 50 mg/ml in 70% CREMOPHOR EL/30% ethanol
[10] = 100 mg/ml in 30% CREMOPHOR EL/70% ethanol
[11] = 100 mg/ml in 50% CREMOPHOR EL/50% ethanol
[12] = 100 mg/ml in 70% CREMOPHOR EL/30% ethanol

With `CCCCCCC(C)(C)c1cc(O)c2c(c1)OC(C)(C)[C@H]1CC=C(CO)C[C@H]21` [dexanabinol, 1,1-dimethylheptyl-(3S,4S)-7-hydroxy-Δ^6-tetrahydrocannabinol] the “time after injection at which brain concentrations equilibrated with plasma concentration” value ([1]; male and female averaged) was “about 30 minutes”, the “differences between genders in some plasma pharmacokinetic parameters” value ([1]; plasma) was 2-3 fold and the AUC ([2]; n=3) was 4210 ng·h/mL. For the same compound, the Cmax ([2]; n=3) was 271 ± 102 ng/mL, the MRT ([2]; n=3) was 12.1 ± 1.15 h and the half-life ([2]; n=3) was 7.47 ± 1.06 h. The bioavailability ([2]; oral, n=3, read-out: % F (oral bioavailability compared to i.v. injection)) was roughly 12%, the “amount of dexanabinol dissolved by CREMOPHOR EL:ethanol cosolvent formulations” value [3] was “at least 100 mg/ml” and the “Stability following dilution in saline, Dilution 1/5” value [3, 4] was “Stable”. For the same compound, the “Stability following dilution in saline, Dilution 1/10” value [3, 4] was “Stable”, the “Stability following dilution in saline, Dilution 1/20” value [3, 4] was “Stable” and the “Stability following dilution in saline, Dilution 1/5” value [3, 5] was “Stable”. The “Stability following dilution in saline, Dilution 1/10” value [3, 5] was “Stable”, the “Stability following dilution in saline, Dilution 1/20” value [3, 5] was “Stable” and the “Stability following dilution in saline, Dilution 1/5” value [3, 6] was “Stable”. The “Stability following dilution in saline, Dilution 1/10” value [3, 6] was “Stable”, the “Stability following dilution in saline, Dilution 1/20” value [3, 6] was “Stable” and the “Stability following dilution in saline, Dilution 1/5: crystals appeared at” value [3, 7] was “appeared at 2 hours”. The “Stability following dilution in saline, Dilution 1/10: crystals appeared at” value [3, 7] was 2 h, the “Stability following dilution in saline, Dilution 1/20: crystals appeared at” value [3, 7] was 2.5 h and the “Stability following dilution in saline, Dilution 1/5: stable at least” value [3, 8] was “least 7 hours”. The “Stability following dilution in saline, Dilution 1/10: stable at least” value [3, 8] was “least 4 hours”, the “Stability following dilution in saline, Dilution 1/20: stable at least” value [3, 8] was no less than 7 h and the “Stability following dilution in saline, Dilution 1/5: stable at least” value [3, 9] was “least 7 hours”. For the same compound, the “Stability following dilution in saline, Dilution 1/10: stable at least” value [3, 9] was “least 7 hours”, the “Stability following dilution in saline, Dilution 1/20: stable at least” value [3, 9] was no less than 7 h and the “stability after dilution with saline” value ([3]; 50 mg/ml in 70:30 CREMOPHOR EL:ethanol, all ratios from 1:5 to 1:20) was “stable”. For the same compound, the “Stability following dilution in saline, Dilution 1/5: crystals appeared at” value [3, 10] was 45 min, the “Stability following dilution in saline, Dilution 1/10: crystals appeared at” value [3, 10] was 0.917 h and the “Stability following dilution in saline, Dilution 1/20: crystals appeared at” value [3, 10] was 1.5 h. For the same compound, the “Stability following dilution in saline, Dilution 1/5: crystals appeared at” value [3, 11] was 90 min, the “Stability following dilution in saline, Dilution 1/10: crystals appeared at” value [3, 11] was 1.5 h and the “Stability following dilution in saline, Dilution 1/20: crystals appeared at” value [3, 11] was 1.5 h. For the same compound, the “Stability following dilution in saline, Dilution 1/5: crystals appeared at” value [3, 12] was “appeared at 2 hours”, the “Stability following dilution in saline, Dilution 1/10: crystals appeared at” value [3, 12] was 2 h and the “Stability following dilution in saline, Dilution 1/20: crystals appeared at” value [3, 12] was 3.5 h.
